Test results published in patent publication US12516295B2, “Generation of pancreatic progenitor cells and beta cells from human pluripotent stem cells” (The Penn State Research Foundation, priority 2018, dated 2026).

Legend:
H1 hESCs = test: Growth-factor-free differentiation of hPSCs to SOX17+ DE cells, SOX17 expression by flow cytometry; type: cell-based, human; conditions: for effect on DE differentiation (result in words): H1 hESCs differentiated with CH, CH+DM or CH+A83-01, day 4 SOX17 by flow cytometry (FIG. 1F); for percentage of cells expressing SOX17: flow cytometry (FIG. 1C); for SOX17+ cells: H1 hESCs, dynamics (FIG. 1E; CH in presence or absence of DM)
Procedure: (§1) FIG. 1. Growth-factor-free differentiation of SOX17+ DE cells from hPSCs via CH and DM treatment. (A) Human 19-9-11 iPSCs were treated with 6 μM CH at day 0. After treatment, cells were collected from 3 to 21 hours (T) and RNA-seq was performed. The bars for each set from left to right are: T0, T3, T6, T9, T12, T15, T18, T21. (B) Schematic of protocol for defined, growth-factor-free differentiation of hPSCs to SOX17+ cells via treatment with CH and DM. (C-D) H1 hESCs were cultured as indicated in 2B with 1 μM DM plus different CH concentration, ranging from 2 to 10 μM. (C) On day 4 of differentiation, cells were analyzed for SOX17 expression by flow cytometry. (D) Cells were immunostained with a SOX17 antibody on day 4 of differentiation under 6 μM CH plus 1 μM DM treatment. (E) H1 hESCs were differentiated with CH in the presence or absence of DM. From day 1 to day 4, cells were analyzed for SOX17 expression by flow cytometry. (F) H1 hESCs were differentiated with CH, CH plus DM or CH plus A83-01. On day 4 of differentiation, cells were analyzed for SOX17 expression by flow cytometry.
Stage 1: On day 0, medium was changed with RPMI supplemented with 1 μM Dorsomorphin (DM) and 2-10 μM CHIR99021(CH). At day 1-4, medium was changed with RPMI supplemented with B-27 without insulin.
Cells were dissociated into single cells with Accutase for 10 min and then fixed with 1% paraformaldehyde for 30 min at room temperature and stained with primary and secondary antibodies in PBS plus 0.1% Triton X-100 and 0.5% BSA. Data were collected on a BD ACCURI C6 PLUS flow cytometer (BD Biosciences) and analyzed using FlowJo 10. FACS gating was based on the corresponding isotype antibody control.
Here we describe a differentiation protocol without using any growth factors. We first initiated DE differentiation by treating hPSCs with CH+DM. To determine optimal CH concentration for DE differentiation, H1 cells were treated by 2 to 10 μM CH in RPMI for 24 hours, followed by 3 days culture in RPMI with 2% B-27 minus insulin supplement. We analyzed the percentage of SOX17+ cells on day 4 of differentiation via flow cytometry. […] The optimal DE differentiation was achieved when hPSCs were treated by 4 or 6 μM CH (FIG. 1C). On day 4, 85% of cells expressing SOX17 when cells were treated with 6 μM CH plus 1 μM DM, whereas the percentage of cells expressing SOX17 decreased to 20% when treated with 10 μM CH plus 1 μM DM (FIG. 1C). […] Next, the dynamics of DE differentiation was investigated by analyzing SOX17 expression from day 1 to day 4. During differentiation, SOX17+ cells increased from 0% on day 1 to 78% on day 4, indicating DE was gradually developed (FIG. 1E). Furthermore, to evaluate whether our novel DE differentiation protocol depends on endogenous TGFbeta pathway, we differentiated H1 hESCs with CH, CH+DM, and CH+A83-01 (a TGFbeta inhibitor).

19-9-11 iPSCs = test: RNA-seq expression profile during CH induced differentiation; type: cell-based, human; conditions: 6 μM CH
Procedure: as §1
To understand RNA expression profile during CH induced differentiation, we collected cells following CH treatment every three hours for a total of eight different time points after differentiation (FIG. 1A).

Q: How did the “effect on DE differentiation (result in words)” value (H1 hESCs) turn out when `c1cc(-c2cnn3cc(-c4ccc(OCCN5CCCCC5)cc4)cnc23)ccn1` [DM, 6-[4-(2-Piperidin-1-ylethoxy)phenyl]-3-pyridin-4-ylpyrazolo[1,5-a]pyrimidine] was run?
A: promoted this differentiation

Q: `Cc1cccc(-c2nn(C(=S)Nc3ccccc3)cc2-c2ccnc3ccccc23)n1` [A83-01] was tested. Which “effect on DE differentiation (result in words)” value (H1 hESCs) did it give?
A: abolished DE differentiation

Q: With `Cc1cnc(-c2cnc(NCCNc3ccc(C#N)cn3)nc2-c2ccc(Cl)cc2Cl)[nH]1` [CH, 6-[[2-[[4-(2,4-Dichlorophenyl)-5-(5-methyl-1H-imidazol-2-yl)-2-pyrimidinyl]amino]ethyl]amino]-3-pyridinecarbonitrile] as the compound, how does the “Sox17+ cells generated” value (H1 hESCs; 10 μM CH treatment (discussion)) read?
A: 6%

Q: What about the “Sox17+ cells generated” value (H1 hESCs; 4 or 6 μM CH treatment (discussion)) of the same compound?
A: more than 74%

Q: And the “DE differentiation (result in words)” value (H1 hESCs; H1 cells, 2 to 10 μM CH in RPMI for 24 hours, SOX17+ cells on day 4)?
A: induced DE differentiation in a dose-dependent manner

Q: And the “percentage of cells expressing SOX17” value (H1 hESCs; H1 cells, day 4, 6 μM CH plus 1 μM DM)?
A: 85%

Q: And the “percentage of cells expressing SOX17” value (H1 hESCs; H1 cells, day 4, 10 μM CH plus 1 μM DM)?
A: 20%

Q: And the “SOX17+ cells” value (H1 hESCs; day 1 of differentiation)?
A: 0%

Q: And the “SOX17+ cells” value (H1 hESCs; day 4 of differentiation)?
A: 78%

Q: And the Nodal expression (19-9-11 iPSCs; 21 hours after treatment, RNA-seq)?
A: upregulated

Q: What about the “RNA expression of several components in the TGF-β signaling pathway” value (19-9-11 iPSCs; samples every three hours over 21 hours, RNA-seq (FIG. 1A)) of the same compound?
A: increased
